Test results published in ChEMBL document CHEMBL5154774, “Discovery of Novel Celastrol-Imidazole Derivatives with Anticancer Activity In Vitro and In Vivo” (J Med Chem, 2022).

Key:
A549 [1] = assay: Antiproliferative activity against human A549 cells expressing Hsp90-Cdc37 protein assessed as inhibition of cell growth incubated for 48 hrs by MTT assay; type: functional, cell-based; settings: A549, 48 h
A549 [2] = assay: Antiproliferative activity against human A549 cells assessed as inhibition of cell growth incubated for 48 hrs by MTT assay; type: functional, cell-based; settings: A549, 48 h
A549 [3] = assay: Antitumor activity against human A549 cells xenografted in BALB/c mouse lung tumor model assessed as tumor weight at 1 mg/kg, ip measured every day for 21 days by caliper method; type: functional; settings: time 21 day
U2OS = assay: Antiproliferative activity against human U2OS cells assessed as inhibition of cell growth incubated for 48 hrs by MTT assay; type: functional, cell-based
A549 [4] = assay: Antiproliferative activity against human A549 cells expressing Cdc37 protein assessed as inhibition of cell growth incubated for 48 hrs by MTT assay; type: functional, cell-based; settings: A549, 48 h
MDA-MB-231 = assay: Antiproliferative activity against human MDA-MB-231 cells assessed as inhibition of cell growth incubated for 48 hrs by MTT assay; type: functional, cell-based; settings: MDA-MB-231, 48 h
A549 [5] = assay: Antitumor activity against human A549 cells xenografted in BALB/c mouse lung tumor model assessed as tumor inhibition rate at 1 mg/kg, ip measured every day for 21 days by caliper method relative to control; type: functional; settings: A549, 504 h, time 21 day
A549 [6] = assay: Antiproliferative activity against human A549 cells expressing Hsp90 protein assessed as inhibition of cell growth incubated for 48 hrs by MTT assay; type: functional, cell-based; settings: A549, 48 h
HCT-116 = assay: Antiproliferative activity against human HCT-116 cells assessed as inhibition of cell growth incubated for 48 hrs by MTT assay; type: functional, cell-based; settings: HCT-116, 48 h

| IC50 (A549 [2]) | IC50 (U2OS) | IC50 (MDA-MB-231) | IC50 (HCT-116) | Compound | IC50 (A549 [1]) | Activity (A549 [3]) | IC50 (A549 [4]) | inhibition in vivo at 1 mg/kg (A549 [5]) | IC50 (A549 [6]) |
| --- | --- | --- | --- | --- | --- | --- | --- | --- | --- |
| 1.45 µM | 1.47 µM | 1.57 µM | 0.79 µM | CC1=C(O)C(=O)C=C2C1=CC=C1[C@@]2(C)CC[C@@]2(C)[C@@H]3C[C@](C)(C(=O)OCCCCCn4cnc(C#N)c4C#N)CC[C@]3(C)CC[C@]12C |  |  |  |  |  |
| 1.08 µM | 1.73 µM | 1.66 µM | 1.16 µM | CC1=C(O)C(=O)C=C2C1=CC=C1[C@@]2(C)CC[C@@]2(C)[C@@H]3C[C@](C)(C(=O)OCCCCCCn4cnc(C#N)c4C#N)CC[C@]3(C)CC[C@]12C |  |  |  |  |  |
| 0.77 µM | 0.89 µM | 0.89 µM | 0.7 µM | CC1=C(O)C(=O)C=C2C1=CC=C1[C@@]2(C)CC[C@@]2(C)[C@@H]3C[C@](C)(C(=O)OCCCCn4cnc([N+](=O)[O-])c4)CC[C@]3(C)CC[C@]12C |  |  |  |  |  |
| 0.78 µM | 0.88 µM | 1.55 µM | 0.67 µM | COC(=O)c1cn(CCCCCOC(=O)[C@]2(C)CC[C@]3(C)CC[C@]4(C)C5=CC=C6C(=CC(=O)C(O)=C6C)[C@]5(C)CC[C@@]4(C)[C@@H]3C2)cn1 |  |  |  |  |  |
| 1.66 µM | 1.58 µM | 1.67 µM | 1.53 µM | CC1=C(O)C(=O)C=C2C1=CC=C1[C@@]2(C)CC[C@@]2(C)[C@@H]3C[C@](C)(C(=O)OCCCCn4cnc(C#N)c4C#N)CC[C@]3(C)CC[C@]12C |  |  |  |  |  |
| 1.97 µM | 1.45 µM | 1.55 µM | 1.29 µM | CC1=C(O)C(=O)C=C2C1=CC=C1[C@@]2(C)CC[C@@]2(C)[C@@H]3C[C@](C)(C(=O)OCCCn4cnc(C)c4)CC[C@]3(C)CC[C@]12C |  |  |  |  |  |
| 1.06 µM | 0.91 µM | 1.02 µM | 1.55 µM | CC1=C(O)C(=O)C=C2C1=CC=C1[C@@]2(C)CC[C@@]2(C)[C@@H]3C[C@](C)(C(=O)OCCCCn4ccnc4[N+](=O)[O-])CC[C@]3(C)CC[C@]12C |  |  |  |  |  |
| 0.79 µM | 1.45 µM | 1.45 µM | 0.72 µM | CC1=C(O)C(=O)C=C2C1=CC=C1[C@@]2(C)CC[C@@]2(C)[C@@H]3C[C@](C)(C(=O)OCCCn4cnc(C#N)c4C#N)CC[C@]3(C)CC[C@]12C |  |  |  |  |  |
| 0.74 µM | 1.35 µM | 1.65 µM | 0.69 µM | COC(=O)c1cn(CCCOC(=O)[C@]2(C)CC[C@]3(C)CC[C@]4(C)C5=CC=C6C(=CC(=O)C(O)=C6C)[C@]5(C)CC[C@@]4(C)[C@@H]3C2)cn1 |  |  |  |  |  |
| 1.09 µM | 1.48 µM | 1.92 µM | 1.34 µM | COC(=O)c1cn(CCCCCCOC(=O)[C@]2(C)CC[C@]3(C)CC[C@]4(C)C5=CC=C6C(=CC(=O)C(O)=C6C)[C@]5(C)CC[C@@]4(C)[C@@H]3C2)cn1 |  |  |  |  |  |
| 0.63 µM | 0.74 µM | 0.56 µM | 0.84 µM | COC(=O)[C@]12CCC(C)(C)C[C@H]1[C@H]1C(=O)C=C3[C@@]4(C)C=C(C#N)C(=O)C(C)(C)[C@@H]4CC[C@@]3(C)[C@]1(C)CC2 [BARDOXOLONE METHYL] |  |  |  |  |  |
| 1.04 µM | 1.52 µM | 1.87 µM | 0.95 µM | COC(=O)c1cn(CCCCOC(=O)[C@]2(C)CC[C@]3(C)CC[C@]4(C)C5=CC=C6C(=CC(=O)C(O)=C6C)[C@]5(C)CC[C@@]4(C)[C@@H]3C2)cn1 |  |  |  |  |  |
| 0.71 µM | 0.71 µM | 1.03 µM | 0.64 µM | CC1=C(O)C(=O)C=C2C1=CC=C1[C@@]2(C)CC[C@@]2(C)[C@@H]3C[C@](C)(C(=O)OC/C=C/Cn4cnc([N+](=O)[O-])c4)CC[C@]3(C)CC[C@]12C |  |  |  |  |  |

The next lines start with the compound.

| Compound | IC50 (A549 [2]) | IC50 (U2OS) | IC50 (MDA-MB-231) | IC50 (HCT-116) | IC50 (A549 [1]) | Activity (A549 [3]) | IC50 (A549 [4]) | inhibition in vivo at 1 mg/kg (A549 [5]) | IC50 (A549 [6]) |
| --- | --- | --- | --- | --- | --- | --- | --- | --- | --- |
| CC1=C(O)C(=O)C=C2C1=CC=C1[C@@]2(C)CC[C@@]2(C)[C@@H]3C[C@](C)(C(=O)O)CC[C@]3(C)CC[C@]12C [CELASTROL] | 1.68 µM | 1.86 µM | 1.98 µM | 1.81 µM | > 100 µM | 0.67 g | > 100 µM | 52.7% | > 100 µM |
| CC1=C(O)C(=O)C=C2C1=CC=C1[C@@]2(C)CC[C@@]2(C)[C@@H]3C[C@](C)(C(=O)OCCCn4cnc([N+](=O)[O-])c4)CC[C@]3(C)CC[C@]12C | 0.67 µM | 0.7 µM | 0.69 µM | 0.63 µM |  |  |  |  |  |
| CC1=C(O)C(=O)C=C2C1=CC=C1[C@@]2(C)CC[C@@]2(C)[C@@H]3C[C@](C)(C(=O)OCCCCCCn4cc([N+](=O)[O-])nc4Br)CC[C@]3(C)CC[C@]12C | 1.32 µM | 1.46 µM | 1.05 µM | 1.93 µM |  |  |  |  |  |
| CC1=C(O)C(=O)C=C2C1=CC=C1[C@@]2(C)CC[C@@]2(C)[C@@H]3C[C@](C)(C(=O)OCCCCn4cc([N+](=O)[O-])nc4Br)CC[C@]3(C)CC[C@]12C | 0.93 µM | 0.68 µM | 1.22 µM | 1.85 µM |  |  |  |  |  |
| CC1=C(O)C(=O)C=C2C1=CC=C1[C@@]2(C)CC[C@@]2(C)[C@@H]3C[C@](C)(C(=O)OCCCn4ccnc4[N+](=O)[O-])CC[C@]3(C)CC[C@]12C | 0.75 µM | 0.8 µM | 0.9 µM | 1.05 µM |  |  |  |  |  |
| CC1=C(O)C(=O)C=C2C1=CC=C1[C@@]2(C)CC[C@@]2(C)[C@@H]3C[C@](C)(C(=O)OCCCn4cc([N+](=O)[O-])nc4Br)CC[C@]3(C)CC[C@]12C | 0.8 µM | 0.6 µM | 1.15 µM | 0.66 µM |  |  |  |  |  |
| CC1=C(O)C(=O)C=C2C1=CC=C1[C@@]2(C)CC[C@@]2(C)[C@@H]3C[C@](C)(C(=O)OCCCCCn4cc([N+](=O)[O-])nc4Br)CC[C@]3(C)CC[C@]12C | 0.81 µM | 0.67 µM | 0.98 µM | 1.1 µM |  |  |  |  |  |
| CC1=C(O)C(=O)C=C2C1=CC=C1[C@@]2(C)CC[C@@]2(C)[C@@H]3C[C@](C)(C(=O)OCCCCCn4cnc([N+](=O)[O-])c4)CC[C@]3(C)CC[C@]12C | 0.71 µM | 0.6 µM | 0.6 µM | 0.61 µM |  |  |  |  |  |
| CC1=C(O)C(=O)C=C2C1=CC=C1[C@@]2(C)CC[C@@]2(C)[C@@H]3C[C@](C)(C(=O)OCCCn4ccnc4)CC[C@]3(C)CC[C@]12C | 1.57 µM | 1.65 µM | 1.55 µM | 1.09 µM |  |  |  |  |  |
| CC1=C(O)C(=O)C=C2C1=CC=C1[C@@]2(C)CC[C@@]2(C)[C@@H]3C[C@](C)(C(=O)OC/C=C/Cn4cc([N+](=O)[O-])nc4Cl)CC[C@]3(C)CC[C@]12C | 0.81 µM | 0.61 µM | 0.98 µM | 0.7 µM |  |  |  |  |  |
| CC1=C(O)C(=O)C=C2C1=CC=C1[C@@]2(C)CC[C@@]2(C)[C@@H]3C[C@](C)(C(=O)OCCCCCCn4cc([N+](=O)[O-])nc4Cl)CC[C@]3(C)CC[C@]12C | 0.9 µM | 0.91 µM | 0.99 µM | 1.12 µM |  |  |  |  |  |
| CC1=C(O)C(=O)C=C2C1=CC=C1[C@@]2(C)CC[C@@]2(C)[C@@H]3C[C@](C)(C(=O)OCCCCCn4cc([N+](=O)[O-])nc4Cl)CC[C@]3(C)CC[C@]12C | 0.75 µM | 0.6 µM | 0.93 µM | 0.78 µM |  |  |  |  |  |
| CC1=C(O)C(=O)C=C2C1=CC=C1[C@@]2(C)CC[C@@]2(C)[C@@H]3C[C@](C)(C(=O)OCCCCCn4ccnc4[N+](=O)[O-])CC[C@]3(C)CC[C@]12C | 0.71 µM | 0.68 µM | 0.98 µM | 0.6 µM |  |  |  |  |  |
| CC1=C(O)C(=O)C=C2C1=CC=C1[C@@]2(C)CC[C@@]2(C)[C@@H]3C[C@](C)(C(=O)OCCCCCCn4ccnc4[N+](=O)[O-])CC[C@]3(C)CC[C@]12C | 0.73 µM | 0.83 µM | 1.21 µM | 0.64 µM |  |  |  |  |  |
| CC1=C(O)C(=O)C=C2C1=CC=C1[C@@]2(C)CC[C@@]2(C)[C@@H]3C[C@](C)(C(=O)OCCCCCCn4cnc([N+](=O)[O-])c4)CC[C@]3(C)CC[C@]12C | 0.79 µM | 0.88 µM | 0.95 µM | 0.63 µM |  |  |  |  |  |
| CC1=C(O)C(=O)C=C2C1=CC=C1[C@@]2(C)CC[C@@]2(C)[C@@H]3C[C@](C)(C(=O)OCCCCn4cc([N+](=O)[O-])nc4Cl)CC[C@]3(C)CC[C@]12C | 0.79 µM | 0.62 µM | 1.02 µM | 0.72 µM |  |  |  |  |  |
